The values below come from article PMC12066179, “Naphthyl-Substituted Ruthenium(II)–Arene Complexes: Exploring the Impact of Binding Modes on Cytotoxicity in Cancer and Normal Cell Lines” (Bioinorganic Chemistry and Applications, 2025).

The test system of data set [1] is Caco-2 (colorectal cancer) cell line. As to the kind of experiment: MTT cell viability assay, Caco-2. It counts as cell-based. The method, then: (§1) The MTT assay, which is based on the reduction of 3-(4,5-dimethylthiazol-2-yl)-2,5-diphenyltetrazolium bromide to a purple formazan product, was performed to estimate cell viability and growth. To determine the appropriate dose and time, we performed the MTT assay in HepG2, MCF-7, Caco-2, and Vero cell lines. Cell suspensions of […] cell lines were first prepared at densities of 1 × 10^4/mL cells per well of 96-well culture dishes and plated in triplicate. Cells were then incubated with the complexes (2.5, 5, 10, 25, and 50 μM) for 24 and 48 h. After the treatment using the complexes, a 10 μL MTT (Glentham Life Sciences, GC4568) solution was added to each well, followed by incubation for 4 h at 37°C in 5% CO2. The medium was then discarded, and 50 μL DMSO was added to each well to dissolve the formazan crystals. The absorbance was immediately measured at 540 nm using a UV-visible spectrophotometer multiplate reader.

In data set [2] the test system is Vero (normal kidney) cell line. As to the kind of experiment: MTT cell viability assay, Vero. In kind it is cell-based. The following applies: for IC50: MTT. On the procedure:
as §1
(In general: Tetrazolium dyes change colour on reduction, which living cells bring about.)

The test system of data set [3] is HepG2 (liver cancer) cell line. As to the kind of experiment: MTT cell viability assay, HepG2. It counts as cell-based. The method, then:
as §1

Data set [4] has as its target FS-DNA. As to the kind of experiment: FS-DNA binding by UV-Vis titration. The following applies: complex 0–15 μM, 20 mM Tris-HCl/NaCl buffer pH 7.2. The method, then: To investigate these interactions, UV-Vis analyses were performed on complexes Ru1-3 (0–15 μM) in 20 mM Tris-HCl/NaCl buffer (pH 7.2) containing 0.1 mM FS-DNA. The corresponding absorption spectra are provided in the supporting information. Aromatic naphthyl groups are known for their ability to intercalate between DNA base pairs. […] While Ru1 is a cationic complex with a high capacity for hydrogen bonding, potentially facilitating ionic interactions with DNA, its overall interaction was weaker compared to the other complexes.
UV-visible spectroscopy was employed to investigate the interaction between […] and Ru1-3. Different concentrations of Ru1-3 (0–15 μM) were titrated against a fixed concentration of FS-DNA ([…]) to monitor changes in absorbance at 260 nm. The analysis of these titration data allowed for the determination of the binding constant (Kb) using the following equation:(1) 1/A−A0=1/Amax−A0+1/C×1/KbAmax−A0, where A is the absorbance of FS-DNA at a specific concentration with increasing complex concentration, A0 is the absorbance of FS-DNA without complex, Amax is the absorbance of the FS-DNA complex at the final state, and C is the complex concentration.

Data set [5] relates to MCF-7 (breast cancer) cell line. As to the kind of experiment: MTT cell viability assay, MCF-7. In kind it is cell-based. The method, then: as §1

Structures are written as SMILES.

Broadly, the IC50 is the midpoint of a concentration-inhibition curve. Higher therefore signals lower potency. In the case of `Cc1ccc(C(C)C)cc1.Cc1ccc(S(=O)(=O)[N](CCNc2cccc3ccccc23)[Ru][Cl])cc1` [Ru2], the IC50 in data set [1] (24 h exposure) was determined as 1.39 µM; in data set [1] (48 h exposure), 3.39 µM; in data set [2] (24 h exposure) it was 7.8 µM; in data set [2] (48 h exposure), 38.3 µM; in data set [3] (24 h exposure), 4.72 µM; in data set [3] (48 h exposure), 8.8 µM. Further, the figures for the IC50 in data set [5] (24 h exposure) and in data set [5] (48 h exposure) were 2.81 µM and 8.75 µM, respectively. In addition, the “Cytotoxic activity in Vero healthy cell line” value in data set [2] (50–2.5 μM, 24 h and 48 h) was “did not manifest any cytotoxic activity at concentrations other than 50 μM”. For the same compound, the “Binding constant (Kb) with FS-DNA” value in data set [4] was found to be 22700 M⁻¹.
